# In patent US4591586A, “6-fluoro-3-[3-(1-heterocyclo)propyl]-1,2-benzisoxazoles for treatment of pain, hypertension and psychoses” (Hoechst-Roussel Pharmaceuticals, priority 1984, dated 1986):
# Counter-ions that a name gives are not always drawn. Like-named read-outs stand apart in the source and are kept apart here.
# Columns and labels:
# [1] = tested on: spontaneous hypertensive rat; assay: antihypertensive activity in the spontaneous hypertensive rat, indirect tail cuff method; assay type: in vivo; conditions: 50 mg/kg of body wt, oral, 3 days, measured on third day
# Protocol: According to this procedure, the test compound is administered orally to a group of 5 rats for 3 days in relation to a control group of the same number. The decrease in blood pressure is measured on the third day of administration.
# [2] = tested on: phenyl-para-quinone induced writhing; assay: phenyl-para-quinone writhing assay in mice (analgesia); assay type: in vivo; conditions: for ED50: Mus musculus, read-out: Analgesic Activity ED50 (dose at which 50% of the phenyl-para-quinone induced writhing is inhibited)
# [3] = tested on: apomorphine-induced climbing; assay: climbing mice assay (block of apomorphine-induced climbing), antipsychotic activity; assay type: in vivo, mice (CK-1 male); conditions: Mus musculus, ip; for ED50: read-out: Antipsychotic Activity ED50 value (estimated dose for 50% decrease in climbing scores)
# [4] = mice, at 20 mg/kg, subcutaneous
# [5] = mice, intraperitoneal, 30 minutes prior to apomorphine 1.5 mg/kg s.c., linear regression
# [6] = mice, 10 mg/kg of body wt, intraperitoneal, 30 minutes prior to apomorphine 1.5 mg/kg s.c., read-out: Antipsychotic Activity (% decrease in climbing score)
structure (smiles),measurement,setting,value
"N=C(N)NCCN1CCCCCCC1 [guanethidine, reference compound]",Blood Pressure Decrease (decrease in mean arterial blood pressure),[1],20 mm/mercury
"OC1CCN(CCCc2noc3cc(F)ccc23)CC1 [1-[3-(6-Fluoro-1,2-benzisoxazol-3-yl)propyl]-4-hydroxypiperidine]",percent decrease in writhing at a given dose,[2]; [4],43%
same,ED50,[3]; [5],10.4 mg/kg
"Cl.Fc1ccc2c(CCCN3CCC(CCCc4ccccc4)CC3)noc2c1 [1-[3-(6-Fluoro-1,2-benzisoxazol-3-yl)propyl]-4-(3-phenylpropyl)piperidine hydrochloride]",Blood Pressure Decrease (decrease in mean arterial blood pressure),[1],40 mm/mercury
same,inhibition in vivo at 10 mg/kg,[3]; [6],25%
"Cl.Fc1ccc2c(CCCN3CCCCC3)noc2c1 [1-[3-(6-Fluoro-1,2-benzisoxazol-3-yl)propyl]piperidine hydrochloride]",ED50,"[2]; sc, mice, subcutaneous",0.6 mg/kg
same,Blood Pressure Decrease (decrease in mean arterial blood pressure),[1],30 mm/mercury
"Fc1ccc2c(CCCNN3CCCCC3)noc2c1 [6-Fluoro-3-{3-[N-(1-piperidino)aminopropyl}-1,2-benzisoxazole oxalate]",ED50,"[2]; sc, mice, subcutaneous",5 mg/kg
same,inhibition in vivo at 10 mg/kg,[3]; [6],36%
"Cl.Fc1ccc2c(CCCN3CCC(Cc4ccccc4)CC3)noc2c1 [4-Benzyl-1-[3-(6-fluoro-1,2-benzisoxazol-3-yl)propyl]piperidine hydrochloride]",Blood Pressure Decrease (decrease in mean arterial blood pressure),[1],71 mm/mercury
same,inhibition in vivo at 10 mg/kg,[3]; [6],29%
"CSc1ccc2c(c1)N(CCC1CCCCN1C)c1ccccc1S2 (centres unmarked) [thioridazine, reference compound]",ED50,[3]; [5],3.5 mg/kg
"Cl.Fc1ccc2c(CCCN3CCC(Oc4ccc(Cl)c(Cl)c4)CC3)noc2c1 [1-[3-(6-Fluoro-1,2-benzisoxazol-3-yl)propyl]-4-(3,4-dichlorophenoxy)piperidine hydrochloride]",percent decrease in writhing at a given dose,[2]; [4],49%
"CC(O)C1(c2ccccc2)CCN(CCCc2noc3cc(F)ccc23)CC1 (centres unmarked) [1-[3-(6-Fluoro-1,2-benzisoxazol-3-yl)propyl]-4-(1-hydroxyethyl)-4-phenylpiperidine hydrochloride]",inhibition in vivo at 10 mg/kg,[3]; read-out: Antipsychotic Activity (% decrease in climbing score),41%
"Cl.O=C(c1ccc(F)cc1)C1CCN(CCCc2noc3cc(F)ccc23)CC1 [1-[3-(6-Fluoro-1,2-benzisoxazol-3-yl)propyl]-4-(4-fluorobenzoyl)piperidine hydrochloride]",ED50,"[2]; sc, mice, subcutaneous",0.8 mg/kg
same,inhibition in vivo at 3 mg/kg,"[3]; mice, 3 mg/kg of body wt, intraperitoneal, 30 minutes prior to apomorphine 1.5 mg/kg s.c., read-out: Antipsychotic Activity (% decrease in climbing score)",91%
"Fc1ccc2c(CCCN3CCc4ccccc4C3)noc2c1 [2-[3-(6-Fluoro-1,2-benzisoxazol-3-yl)propyl]-1,2,3,4-tetrahydroisoquinolinehydrochloride]",percent decrease in writhing at a given dose,[2]; [4],69%
"Cl.Fc1ccc2c(CCCN3CCC(Sc4ccccc4)CC3)noc2c1 [1-[3-(6-Fluoro-1,2-benzisoxazol-3-yl)propyl]-4-phenylthiopiperidine hydrochloride]",ED50,"[2]; sc, mice, subcutaneous",4.4 mg/kg
same,inhibition in vivo at 10 mg/kg,[3]; [6],27%
"CC(C)=CCN1CCC2(C)c3cc(O)ccc3CC1C2C (centres unmarked) [pentazocine, reference compound]",ED50,[2]; sc,1.3 mg/kg
"Fc1ccc2c(CCCN3CCCC3)noc2c1.O=C(O)C(=O)O [1-[3-(6-Fluoro-1,2-benzisoxazol-3-yl)propyl]pyrrolidine oxalate]",ED50,"[2]; sc, mice, subcutaneous",1.2 mg/kg
"O=C(NC1CCN(CCCc2noc3cc(F)ccc23)CC1)c1ccccc1 [4-Benzamido-1-[3-(6-fluoro-1,2-benzisoxazol-3-yl)propyl]-piperidine]",ED50,"[2]; sc, mice, subcutaneous",0.6 mg/kg
same,Blood Pressure Decrease (decrease in mean arterial blood pressure),[1],44 mm/mercury
same,inhibition in vivo at 10 mg/kg,[3]; [6],49%
"Fc1ccc2c(CCCN3CCCCCC3)noc2c1.O=C(O)C(=O)O [1-[3-(6-Fluoro-1,2-benzisoxazol-3-yl)propyl]-2,3,4,5,6,7-hexahydroazepine oxalate]",ED50,"[2]; sc, mice, subcutaneous",1.3 mg/kg
same,inhibition in vivo at 10 mg/kg,[3]; [6],27%
"Fc1ccc2c(CCCN3CCOCC3)noc2c1 [1-[3-(6-Fluoro-1,2-benzisoxazol-3-yl)propyl]morpholine oxalate]",ED50,"[2]; sc, mice, subcutaneous",2.2 mg/kg
"Cl.Fc1ccc2c(CCCN3CCC(Oc4ccc(C(F)(F)F)cc4)CC3)noc2c1 [1-[3-(6-Fluoro-1,2-benzisoxazol-3-yl)propyl]-4-(4-trifluoromethylphenoxy)piperidine hydrochloride]",Blood Pressure Decrease (decrease in mean arterial blood pressure),[1],35 mm/mercury
"CCC(=O)O[C@](Cc1ccccc1)(c1ccccc1)[C@H](C)CN(C)C [propoxyphene, reference compound]",ED50,[2]; sc,3.9 mg/kg
"Cl.Fc1ccc2c(CCCN3CCC(c4ccccc4)CC3)noc2c1 [1-[3-(6-Fluoro-1,2-benzisoxazol-3-yl)propyl]-4-phenylpiperidine hydrochloride]",ED50,"[2]; sc, mice, subcutaneous",1 mg/kg
same,inhibition in vivo at 10 mg/kg,[3]; [6],35%
"Fc1ccc2c(CCCN3CCC(Oc4ccc(Cl)cc4)CC3)noc2c1 [4-(4-Chlorophenoxy)-1-[3-(6-fluoro-1,2-benzisoxazol-3-yl)propyl]-piperidinehydrochloride]",Blood Pressure Decrease (decrease in mean arterial blood pressure),[1],39 mm/mercury
"Cl.Fc1ccc2c(CCCN3CCC4(CC3)OCCO4)noc2c1 [8-[3-(6-Fluoro-1,2-benzisoxazol-3-yl)propyl]-1,4-dioxa-8-azaspiro[4,5]decane hydrochloride]",ED50,"[2]; sc, mice, subcutaneous",1.4 mg/kg
same,ED50,[3]; [5],6.4 mg/kg
"O=C(CCCN1CCC(O)(c2ccc(Cl)cc2)CC1)c1ccc(F)cc1 [haloperidol, reference compound]",ED50,[3],0.11 mg/kg
"CC(=O)C1(c2ccccc2)CCN(CCCc2noc3cc(F)ccc23)CC1.Cl [4-Acetyl-1-[3-(6-fluoro-1,2-benzisoxazol-3-yl)propyl]-4-phenylpiperidine hydrochloride]",percent decrease in writhing at a given dose,"[2]; mouse, in vivo, sc, 20 mg/kg",46%
"CC1CCN(CCCc2noc3cc(F)ccc23)CC1.Cl [4-Methyl-1-[3-(6-fluoro-1,2-benzisoxazol-3-yl)propyl]piperidine hydrochloride]",Blood Pressure Decrease (decrease in mean arterial blood pressure),[1],59 mm/mercury
same,ED50,[3]; [5],7.6 mg/kg
